Test results: ChEMBL document CHEMBL1201862, “PubChem BioAssay data set” (2004)
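These data come from cells grown in 96-well plates and exposed to compound for 48 hours at five concentrations. GI50 is the concentration that inhibits growth by half.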 Activity calls are given as the source filed them. Cut-off read from the data, not from the text of the source: active = GI50 up to about 1.1 µM and inactive = higher. Non-standard residues stand in square brackets, D forms with d. Residues, ends and D or L forms follow the SMILES beside them. ξ: configuration not given here. *: point of attachment. Benzoyl(4-OMe) = COc1ccc(C(=O)*)cc1; NMeF = CN[C@@H](Cc1ccccc1)C(=O)O; NMeN = CN[C@@H](CC(N)=O)C(=O)O; 2Thi = N[CH](Cc1cccs1)C(=O)O; NMeV = CN[C@H](C(=O)O)C(C)C; ξNMeV = CNC(C(=O)O)C(C)C; Boc = CC(C)(C)OC(=O)*; ξNMeA = CNC(C)C(=O)O; ξV = CC(C)C(N)C(=O)O

Experiments:
Experiment in all cases: DTP human tumour cell line panel, 48 h
BT-549 = tested on: BT-549
DLD-1 = tested on: DLD-1
DMS-114 = tested on: DMS-114
DMS-273 = tested on: DMS-273
KM-20L2 = tested on: KM-20L2
XF498 = tested on: XF498
HOP-18 = tested on: HOP-18
M19-MEL = tested on: M19-MEL
RXF 631 = tested on: RXF 631

In the case of `COC(=O)C(C)N(C)C(=O)[C@H](CC(N)=O)N(C)C(=O)[C@@H]1CCCN1C(=O)[C@H](C(C)C)N(C)C(=O)C(C(C)C)N(C)C(=O)[C@H](Cc1ccccc1)N(C)C(=O)C(NC(=O)OC(C)(C)C)C(C)C` (stereo not given in full) (Boc-[ξV][NMeF][ξNMeV][NMeV]P[NMeN][ξNMeA]-OMe), the GI50 (BT-549) is reported as 12.1 µM (inactive), the GI50 (DLD-1) is reported as 17.8 µM (inactive) and the GI50 (DMS-114) is reported as 4.65 µM (inactive). For the same molecule, the GI50 (DMS-273) was 15.1 µM (inactive), the GI50 (KM-20L2) was 33 µM (inactive) and the GI50 (XF498) was 15.4 µM (inactive).

With `COC(=O)C1CCC(=O)N1C(c1ccc(OC)cc1)c1ccc(OC)cc1` (stereo not given) the GI50 (BT-549) was > 100 µM (inactive).

With `O=c1c2ccccc2[nH]c2c(Cl)cc(Cl)c(N3CCCCC3)c12` the GI50 (BT-549) was 43.5 µM (inactive).

For `COc1ccc(C2C3=C(COC3=O)Oc3cc4c(cc32)OCO4)c(OC)c1` (stereo not given), the GI50 (BT-549) was 22.9 µM (inactive).

For `CC(=O)O[C@H]1C(=O)[C@@]2(C)[C@H]([C@H](OC(=O)c3ccccc3)[C@]3(O)C[C@H](OC(=O)[C@H](OC(=O)OCCC(O)CO)[C@@H](NC(=O)c4ccccc4)c4ccccc4)C(C)=C1C3(C)C)[C@]1(OC(C)=O)CO[C@@H]1C[C@@H]2O` (stereo not given in full), the GI50 (BT-549) was < 0.0159 µM (active).

`O=c1oc2cc(/N=C/c3ccc4c(c3)OCO4)ccc2c2ccccc12` was tested, and the GI50 (BT-549) was > 100 µM (inactive).

With `Cc1[nH]c(-c2ccccc2)c(-c2ccc(Cl)cc2)c1C(=O)ONC(=O)c1ccccc1` the GI50 (BT-549) was 2.56 µM (inactive).

`O=c1c2cc(S(=O)(=O)Nc3ccc(Cl)cc3Cl)ccc2ncn1NS(=O)(=O)c1cccc2ccccc12` was tested, and the GI50 (BT-549) was 16.5 µM (inactive).

In the case of `C[C@H]1[C@H](C)CC[C@]2(C(=O)OC3OC(CO)C(O)C(O)C3O)CC[C@]3(C)C(=CC[C@@H]4[C@@]5(C)C[C@H]6OC(=O)c7cc(O)c(O)c(O)c7-c7c(cc(O)c(O)c7O)C(=O)O[C@@H]6C(CO)(CO)[C@@H]5CC[C@]43C)[C@H]12` (stereo not given in full), the GI50 (BT-549) is reported as > 100 µM (inactive).

For `CS(=O)(=O)CC1=Nc2nnc(CCCCCCCc3nnc4n3C(=O)C(CS(C)(=O)=O)=N4)n2C1=O`, the GI50 (DMS-114) was > 100 µM (inactive), the GI50 (HOP-18) was > 100 µM (inactive) and the GI50 (KM-20L2) was > 100 µM (inactive). The GI50 (M19-MEL) was > 100 µM (inactive) and the GI50 (XF498) was > 100 µM (inactive).

`Cc1cc(/N=C/c2ccc(N(C)C)cc2)n(-c2ccccc2)n1` was tested, and the GI50 (BT-549) was 51.3 µM (inactive).

`Cc1nnc2n1N=C(c1ccccc1)C(c1ccccc1)S2` (stereo not given) was tested, and the GI50 (DLD-1) was 55.3 µM (inactive), the GI50 (DMS-114) was 25.5 µM (inactive) and the GI50 (DMS-273) was 22.3 µM (inactive). For the same molecule, the GI50 (HOP-18) was 60.7 µM (inactive), the GI50 (KM-20L2) was 27.4 µM (inactive) and the GI50 (M19-MEL) was 43.8 µM (inactive). The GI50 (XF498) was > 100 µM (inactive).

`OC(O)(C(F)(F)F)C(F)(F)F` was tested, and the GI50 (BT-549) was > 100 µM (inactive).

`CSc1nc(Nc2ccccc2Cl)c2c(N)nn(C)c2n1` was tested, and the GI50 (BT-549) was > 100 µM (inactive).

For `Cc1ccccc1NC(=O)C(=O)CC(=O)c1c(C)[n+]([O-])c2ccccc2[n+]1[O-]`, the GI50 (DLD-1) was > 100 µM (inactive), the GI50 (DMS-114) was > 100 µM (inactive) and the GI50 (DMS-273) was > 100 µM (inactive). For the same molecule, the GI50 (HOP-18) was > 100 µM (inactive), the GI50 (KM-20L2) was > 100 µM (inactive) and the GI50 (M19-MEL) was > 100 µM (inactive).

With `C/C=C/COc1cc(NC(=S)OC(C)C)ccc1Cl.C/C=C\COc1cc(NC(=S)OC(C)C)ccc1Cl` the GI50 (BT-549) was 19.6 µM (inactive).

`CC(C)(C)c1cc(C(=O)C2Cc3ccccc3C(=O)O2)cc(C(C)(C)C)c1O` (stereo not given) was tested, and the GI50 (BT-549) was 10.5 µM (inactive).

For `Nc1nc(NNc2cccc(F)c2)cc(=O)[nH]1`, the GI50 (BT-549) was 77.1 µM (inactive).

`Cc1cc(NC(=O)NC(=O)c2ccccc2[N+](=O)[O-])ccc1Oc1ncc(Cl)cn1` was tested, and the GI50 (BT-549) was 29.4 µM (inactive), the GI50 (DLD-1) was 0.0783 µM (active) and the GI50 (DMS-114) was 0.0927 µM (active). For the same molecule, the GI50 (DMS-273) was 0.0501 µM (active), the GI50 (HOP-18) was 23.4 µM (inactive) and the GI50 (KM-20L2) was 0.0906 µM (active). For the same molecule, the GI50 (M19-MEL) was 0.316 µM (active) and the GI50 (XF498) was 0.0671 µM (active).

In the case of `CC(=O)Nc1ccc(/C=N\N2C(=O)c3ccccc3C2=O)cc1`, the GI50 (DLD-1) is reported as > 100 µM (inactive), the GI50 (DMS-114) is reported as > 100 µM (inactive) and the GI50 (DMS-273) is reported as > 100 µM (inactive). For the same molecule, the GI50 (HOP-18) was > 100 µM (inactive), the GI50 (KM-20L2) was > 100 µM (inactive) and the GI50 (M19-MEL) was > 100 µM (inactive). For the same molecule, the GI50 (XF498) was > 100 µM (inactive).

`CC(=O)NC(Cc1c[nH]cn1)C(=O)N1CCCC1C(N)=O` (stereo not given) was tested, and the GI50 (BT-549) was > 100 µM (inactive).

`CCC(C)C(NC(=O)C(Cc1cccs1)NC(=O)C(CC(C)C)NC(=O)C(CC(C)C)NC(=O)C(CCCCN)NC(=O)C(CCCNC(=N)N)NC(=O)c1ccc(OC)cc1)C(=O)NC(CC(C)C)C(N)=O` (stereo not given) ({Benzoyl(4-OMe)}-RKLL[2Thi]IL-NH2; configuration not given here) was tested, and the GI50 (BT-549) was > 100 µM (inactive).

With `N=C(N)c1ccc(/N=N\c2c(O)ccc3cc4c(/N=N\c5ccc(C(=N)N)cc5)c(O)ccc4cc23)cc1` the GI50 (BT-549) was > 100 µM (inactive).

With `CCCCC(=C=C1CCCCC1O)C1CCCN1C(=O)OC(C)(C)C` (stereo not given) the GI50 (BT-549) was 19.3 µM (inactive).

With `OCC(O)C(O)C(O)C(O)c1nc2cc(Cl)ccc2[nH]1` (stereo not given) the GI50 (BT-549) was > 100 µM (inactive).

For `Cc1cc2oc(=O)c(Cl)c(Cl)c2c(C)c1Cl`, the GI50 (BT-549) was 7.26 µM (inactive).

`O=C1C(/C=N/CCc2c[nH]c3ccccc23)C(C(F)(F)F)=NN1c1nc2ccccc2s1` (stereo not given) was tested, and the GI50 (BT-549) was 25.3 µM (inactive).

For `NS(=O)(=O)c1ccc(Nc2c3ccccc3nc3c(C(=O)NC(CO)(CO)CO)cccc23)cc1`, the GI50 (BT-549) was 0.126 µM (active).

With `COc1ccc(N2C(=O)/C(=C\c3cc(OC)c(OC)c(OC)c3)S(=O)(=O)C2c2ccccc2)cc1` (stereo not given) the GI50 (BT-549) was 22 µM (inactive).

For `N#C/C=C1\C=CC(O)C(O)C1OC1OC(CO)C(O)C(O)C1O` (stereo not given), the GI50 (BT-549) was > 100 µM (inactive).

In the case of `NC(=O)c1ccc(NS(=O)(=O)c2ccc(N)cc2)nc1`, the GI50 (BT-549) is reported as > 100 µM (inactive).

In the case of `Cc1cccc(NC(=O)/C(=N\NC(C)(C)C)C2NC(=S)NC2=O)c1C` (stereo not given), the GI50 (DLD-1) is reported as > 100 µM (inactive), the GI50 (KM-20L2) is reported as > 100 µM (inactive) and the GI50 (M19-MEL) is reported as > 100 µM (inactive). For the same molecule, the GI50 (RXF 631) was > 100 µM (inactive).

With `CC(C)CNc1nc(N)nc(O)c1NC=O` the GI50 (BT-549) was > 100 µM (inactive).

With `CC1=NN(C(=O)Cc2ccccc2)C(=O)/C1=C/c1c(O)ccc2ccccc12` the GI50 (DLD-1) was 10 µM (inactive), the GI50 (DMS-114) was 45.9 µM (inactive) and the GI50 (DMS-273) was 50.5 µM (inactive). For the same molecule, the GI50 (HOP-18) was 30.3 µM (inactive), the GI50 (M19-MEL) was 33 µM (inactive) and the GI50 (XF498) was 1.68 µM (inactive).
